Consider seven compounds from patent publication US20250352541A1, “THERAPEUTIC FOR CANCER REFRACTORY TO IMMUNE CHECKPOINT INHIBITOR” (Sumitomo Pharma Co., Ltd., priority 2022, published 2025).

By IC50 is commonly meant the point on the concentration scale where inhibition reaches its midpoint. Broadly, the inhibition is the relative decrease from the control value, in per cent.

In one data set the target is CHK1 (Homo sapiens (Human), UniProt O14757). Description: CHK1 inhibitory activity test (IMAP TR-FRET). In general terms: Time-resolved FRET reads energy transfer from a long-lived donor to a nearby acceptor.
The next data set has as its system ES-2 cells. Description: Cell growth suppression experiment. It counts as cell-based. The method, then: ES-2 cells were obtained from the American Type Culture Collection (ATCC). These cells were cultured at 37° C. in the presence of 5% CO2 in a 10% fetal bovine serum, 1% penicillin/streptomycin containing McCoy's 5a medium.
500 cells were seeded for each well in a 384-well plate, and the evaluated compound was added so that the final concentration of DMSO would be 0.1% to culture the cells for 2 days. After completion of the culture, the cell viability rate was calculated using CellTiter-Glo® 3D Reagent (Promega, G968B).
The results of cell growth suppression test on representative compounds of the present disclosure are listed in the following table based on the ranking of I, IT, III, IV, and V (1000 nM<I, 1000 nM>TI>300 nM, 300 nM>III>100 nM, 100 nMV>IV>30 nM, 30 nM>V).

The next data set has as its target hERG current (Homo sapiens (Human), UniProt Q12809). Description: hERG current blocking test. The conditions noted are these: for hERG/CHK1: IC50 of hERG divided by IC50 of CHK1 inhibition; for IC50: read-out: hERG inhibition IC50, hERG expressing CHO cells. In general terms: hERG is a cardiac potassium channel; its block is linked to QT prolongation.
A further data set has as its target CYP3A4 (Homo sapiens (Human), UniProt P08684). Description: CYP3A4 MBI and enzyme inactivation clearance evaluation. Format: in vitro ADME. The conditions noted are these: for Factor of change in IC50 value: human liver microsome, pre-incubation in the presence of NADPH. The method, then:
The effect and mode of inhibition of the test compound on CYP3A4 were evaluated using a human liver microsome as an enzyme source and midazolam or testosterone as a substrate. […] The IC50 value was calculated from a concentration plot.

SMILES strings stand for the structures. Where only a bound is given, the exact number is not on record here.

CYP3A4, sequence (P08684 whole entry): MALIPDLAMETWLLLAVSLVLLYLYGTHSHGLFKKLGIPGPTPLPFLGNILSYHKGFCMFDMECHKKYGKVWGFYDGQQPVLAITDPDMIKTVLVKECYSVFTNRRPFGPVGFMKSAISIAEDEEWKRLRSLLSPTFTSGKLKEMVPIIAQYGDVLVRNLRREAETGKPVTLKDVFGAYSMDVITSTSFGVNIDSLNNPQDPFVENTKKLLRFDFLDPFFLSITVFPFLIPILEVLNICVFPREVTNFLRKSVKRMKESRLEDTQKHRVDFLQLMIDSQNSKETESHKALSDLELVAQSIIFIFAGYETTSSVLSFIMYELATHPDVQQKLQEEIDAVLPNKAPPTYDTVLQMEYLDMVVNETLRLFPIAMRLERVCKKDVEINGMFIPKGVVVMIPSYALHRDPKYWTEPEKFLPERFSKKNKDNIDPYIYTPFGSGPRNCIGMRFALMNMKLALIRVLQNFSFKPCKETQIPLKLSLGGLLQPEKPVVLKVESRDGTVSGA
CHK1, sequence (O14757 whole entry): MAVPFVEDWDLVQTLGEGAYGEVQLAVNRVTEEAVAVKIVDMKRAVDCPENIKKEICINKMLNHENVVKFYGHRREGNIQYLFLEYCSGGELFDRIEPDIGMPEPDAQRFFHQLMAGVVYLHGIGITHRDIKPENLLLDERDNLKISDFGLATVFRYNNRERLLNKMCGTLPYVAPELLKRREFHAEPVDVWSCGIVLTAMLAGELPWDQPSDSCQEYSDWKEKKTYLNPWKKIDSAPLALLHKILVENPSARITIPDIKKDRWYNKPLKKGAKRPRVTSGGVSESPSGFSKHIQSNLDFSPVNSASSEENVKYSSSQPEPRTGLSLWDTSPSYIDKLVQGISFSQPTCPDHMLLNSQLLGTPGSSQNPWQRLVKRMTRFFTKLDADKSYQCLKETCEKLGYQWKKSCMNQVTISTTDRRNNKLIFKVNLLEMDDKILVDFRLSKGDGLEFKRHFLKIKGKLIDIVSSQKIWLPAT
hERG current, sequence (Q12809 whole entry): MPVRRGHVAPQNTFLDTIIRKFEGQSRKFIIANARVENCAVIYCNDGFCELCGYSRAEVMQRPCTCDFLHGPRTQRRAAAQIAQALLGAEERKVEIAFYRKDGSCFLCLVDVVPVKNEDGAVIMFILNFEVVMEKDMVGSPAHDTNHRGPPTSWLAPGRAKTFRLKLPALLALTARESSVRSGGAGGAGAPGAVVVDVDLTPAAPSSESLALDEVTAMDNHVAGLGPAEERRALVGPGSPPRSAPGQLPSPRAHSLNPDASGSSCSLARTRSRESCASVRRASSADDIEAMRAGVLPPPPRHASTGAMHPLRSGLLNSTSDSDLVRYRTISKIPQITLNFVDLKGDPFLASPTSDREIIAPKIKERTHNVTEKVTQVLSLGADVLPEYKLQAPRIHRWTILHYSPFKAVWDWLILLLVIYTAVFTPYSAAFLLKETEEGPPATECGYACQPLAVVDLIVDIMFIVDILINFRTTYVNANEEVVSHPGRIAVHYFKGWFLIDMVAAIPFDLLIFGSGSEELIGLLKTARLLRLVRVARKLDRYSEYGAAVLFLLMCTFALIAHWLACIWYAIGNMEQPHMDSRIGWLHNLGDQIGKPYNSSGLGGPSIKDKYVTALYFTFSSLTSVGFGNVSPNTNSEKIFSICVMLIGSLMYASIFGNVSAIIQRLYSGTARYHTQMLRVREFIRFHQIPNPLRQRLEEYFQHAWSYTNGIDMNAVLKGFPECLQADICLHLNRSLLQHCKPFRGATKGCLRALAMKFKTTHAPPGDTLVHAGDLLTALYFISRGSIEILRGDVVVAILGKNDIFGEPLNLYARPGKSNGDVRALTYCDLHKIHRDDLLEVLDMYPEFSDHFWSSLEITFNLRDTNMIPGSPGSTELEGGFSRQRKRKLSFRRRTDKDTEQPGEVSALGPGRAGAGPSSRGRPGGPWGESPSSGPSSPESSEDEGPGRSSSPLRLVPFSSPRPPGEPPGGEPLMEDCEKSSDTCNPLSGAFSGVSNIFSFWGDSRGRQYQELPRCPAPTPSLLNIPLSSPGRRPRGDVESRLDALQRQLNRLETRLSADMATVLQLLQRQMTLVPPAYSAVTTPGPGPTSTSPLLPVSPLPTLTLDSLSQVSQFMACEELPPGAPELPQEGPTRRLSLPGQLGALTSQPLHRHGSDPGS
Protocol for CHK1: IMAP TR-FRET Screening Express Kit (R8160) was obtained from Molecular Devices. […] FAM-PKAtide (R7255, Molecular Devices) and FAM-Phospho-PKAtide (R7304, Molecular Devices) were admixed after dilution, and calibration standard systems for phosphorylation levels from 0 to 100% were created. 5 μL of a compound dissolved in a 0.4% DMSO solution was added to a 384 well plate. A compound study group to which 5 μL of each of CHK1, CHK1tide, and ATP was added, and a standard group to which 20 μL of standard was added were created, and subjected to a kinase reaction for 3 hours at 30° C. Subsequently, 60 μL of Binding Reagent (80% Buffer A, 20% Buffer B, 1:600 Binding Reagent, 1:400 Tb-Donor) was added for a binding reaction for 2 hours at room temperature.
Protocol for hERG current: The test compounds were added to cultured hERG (human Ether-a-go-go Related Gene) gene stably expressing CHO cell line cells to achieve 0.27 to 100 μM.

On to `COc1cncc(OC[C@]2(F)CCNC2)c1-c1cc(Nc2cnc(C#N)cn2)n[nH]1` [Example 20, (S)-5-[(5-{3-[(3-fluoropyrrolidin-3-yl)methoxy]-5-methoxypyridin-4-yl}-1H-pyrazol-3-yl)amino]pyrazine-2-carbonitrile], for which, at CHK1, the half-maximal inhibitory concentration (IC50) is 0.34 nM and the “effect of suppressing CHK1 activity compared with prexasertib” value was “more potent effect of suppressing CHK1 activity than prexasertib”. The “cell growth suppression effect compared with prexasertib” value with ES-2 cells is recorded as “excellent cell growth suppression effect that is equivalent to that of prexasertib”. Further, at hERG current, the hERG/CHK1 is 11176 and the IC50 came to 3800 nM.
The matching figures for `COc1cncc(OC[C@@]2(F)CCNC2)c1-c1cc(Nc2cnc(C#N)cn2)n[nH]1` [Example 22, (R)-5-[(5-{3-[(3-fluoropyrrolidin-3-yl)methoxy]-5-methoxypyridin-4-yl}-1H-pyrazol-3-yl)amino]pyrazine-2-carbonitrile]: 0.24 nM, “more potent effect of suppressing CHK1 activity than prexasertib”, “excellent cell growth suppression effect that is equivalent to that of prexasertib”, 12500 and 3000 nM.
Turning to `COc1nccc(OCC2(CO)CNC2)c1-c1cc(Nc2cnc(C#N)cn2)n[nH]1` [Example 8, 5-{[5-(4-{[3-(hydroxymethyl)azetidin-3-yl]methoxy}-2-methoxypyridin-3-yl)-1H-pyrazol-3-yl]amino}pyrazine-2-carbonitrile], on CHK1, the concentration for half-maximal inhibition (IC50) is below 0.1 nM and the “effect of suppressing CHK1 activity compared with prexasertib” value is listed as “more potent effect of suppressing CHK1 activity than prexasertib”. Besides, at hERG current, the hERG/CHK1 is recorded as above 1000000 and the half-maximal inhibitory concentration (IC50) was above 100000 nM. Further, the “Factor of change in IC50 value” on CYP3A4 was “Not Detected”.
`COc1cncc(OC[C@H](F)CN)c1-c1cc(Nc2cnc(C#N)cn2)n[nH]1` [Example 30, 5-[(5-{3-[(2R)-3-amino-2-fluoropropoxy]-5-methoxypyridin-4-yl}-1H-pyrazol-3-yl)amino]pyrazine-2-carbonitrile]: at CHK1, the IC50 is 0.26 nM and the “effect of suppressing CHK1 activity compared with prexasertib” value was “more potent effect of suppressing CHK1 activity than prexasertib”. Further, the “cell growth suppression effect compared with prexasertib” value with ES-2 cells is “excellent cell growth suppression effect that is equivalent to that of prexasertib”. Besides, on hERG current, the hERG/CHK1 came out at 40000 and the half-inhibitory concentration (IC50) was found to be 10400 nM. Besides, at CYP3A4, the “Factor of change in IC50 value” is listed as “Not Detected”.
Take `COc1cncc(OC[C@@H](F)CN)c1-c1cc(Nc2cnc(C#N)cn2)n[nH]1` [Example 29, 5-[(5-{3-[(2S)-3-amino-2-fluoropropoxy]-5-methoxypyridin-4-yl}-1H-pyrazol-3-yl)amino]pyrazine-2-carbonitrile]: the IC50 at CHK1 worked out at 0.6 nM. The inhibition at 0.0001 µM on CHK1 (read-out: CHK1 inhibition % at 0.1 nM) was below 5%. The “cell growth suppression effect compared with prexasertib” value with ES-2 cells was “excellent cell growth suppression effect that is equivalent to that of prexasertib”. At hERG current, the hERG/CHK1 is 18667 and the IC50 was 11200 nM. The “Factor of change in IC50 value” at CYP3A4 was “Not Detected”.
In the case of `COc1ccnc(OCC2(CN)CC2)c1-c1cc(Nc2cnc(C#N)cn2)n[nH]1` [Example 37, 5-{[5-(2-{[1-(aminomethyl)cyclopropyl]methoxy}-4-methoxypyridin-3-yl)-1H-pyrazol-3-yl]amino}pyrazine-2-carbonitrile], on CHK1, half-maximal inhibition (IC50) required 0.32 nM and the “effect of suppressing CHK1 activity compared with prexasertib” value was “more potent effect of suppressing CHK1 activity than prexasertib”. Moreover, the “cell growth suppression effect compared with prexasertib” value with ES-2 cells is given as “excellent cell growth suppression effect that is equivalent to that of prexasertib”. Further, on hERG current, the hERG/CHK1 is given as below 8438 and the IC50 was below 2700 nM. In addition, at CYP3A4, the “inhibition of CYP3A4 based on MBI” value is listed as “do not exhibit inhibition of CYP3A4 based on MBI” and the “Factor of change in IC50 value” is given as “Not Detected”.
Consider `COc1cncc(OC[C@@H]2CNCCO2)c1-c1cc(Nc2cnc(C#N)cn2)n[nH]1` (stereo in doubt) [Example 12, 5-[(5-{3-methoxy-5-[(morpholin-2-yl)methoxy]pyridin-4-yl}-1H-pyrazol-3-yl)amino]pyrazine-2-carbonitrile], for which, on CHK1, the IC50 came out at 0.34 nM and the “effect of suppressing CHK1 activity compared with prexasertib” value is reported as “more potent effect of suppressing CHK1 activity than prexasertib”. For the same compound, on hERG current, the hERG/CHK1 stood at 9118 and the IC50 stood at 3100 nM.
